This assay concerns isolated stratum corneum (SC). The assay is described as follows: Moisturizing potential on isolated stratum corneum by measurement with a Corneometer (dielectric capacitance). Conditions: for Mean DHCMi corr. active agent: vehicle-corrected; for Dielectric capacitance of the stratum corneum / moisturizing effect in comparison with glycerol at the same concentration: 5% by weight, result in words. How it is done:
B): Evaluation of the Moisturizing Potential on Isolated Stratum Corneum by Measurement with a Corneometer
A test was performed to evaluate the moisturizing potential of the compounds of the invention formulated in an aqueous solution to an amount of 5% by weight relative to the total weight of the composition.
The technique makes it possible to measure the dielectric capacitance of stratum corneum (SC), which depends on the mean dielectric permittivity value of the tissue. The dielectric permittivity varies greatly with the amount of water contained in the SC.
The SC samples are conditioned at 75% relative humidity and at 25° C. before/during the measurements and the treatment. The capacitance measurement is performed using a Corneometer™ (Courage & Khazaka, Germany).
The test compound, compound 2 according to the invention or a moisturizing active agent such as glycerol, is dissolved in a water/n-propanol mixture (80/20) and the solution is deposited onto the SC at a rate of 10 μl/cm^2 followed by air-drying for a total duration of 1 hour 30 minutes.
Measurement is taken at T0, before the treatment, and a measurement Ttreat is taken after total drying of the treatment.
Each treatment is systematically compared with its control (vehicle) and with its T0.
Using at least two different batches of SC, four to five SC samples are measured per treatment.
The variation in the corneometer signal (HCM) after treatment is calculated first for each SC sample: DHCMi=HCMi(Ttreat)−HCMi(T0). The mean of the DHCMi(vehicle) variations is then calculated for the control samples (treated with the vehicle); this mean value is subtracted from all the DHCMi(active agent) variations to correct the systematic bias.
The following is measured for each sample i: • For the vehicle (control): DHCMi(veh)=HCMiveh(Ttreat)−HCMiveh(T0) • For the active agent: DHCMiactive agent=HCMiactive agent(Ttreat)−HCMiactive agent(T0)
To correct the systematic bias associated with the vehicle, the corrected value DHCMicorr. active agent is considered for the active agent according to: DHCMicorr. active agent−DHCMiactive agent−M
in which M corresponds to the mean of the DHCMi(veh) variations observed on the n control samples:
The mean DHCMi corr. active agent values, and also the associated standard deviations that were obtained, are reported in the table below for compound 2 tested at 5%, in comparison with glycerol at 5%: […]

[1] abbreviates: 5% by weight in water/n-propanol mixture (80/20), 10 μl/cm2 on SC, 75% RH, 25° C., table for compound 2 vs glycerol.
Setting [2] is: 5% by weight in water/n-propanol mixture, table for compounds 13 and 14 vs glycerol.

On to `C[N+](C)(CCO)CCO.[Cl-]` [Compound 2], for which the “Dielectric capacitance of the stratum corneum / moisturizing effect in comparison with glycerol at the same concentration” value was “much better”. For the same compound, the “Mean DHCMi corr. active agent” value under setting [1] is recorded as 25.9.
Turning to `OCC(O)CO` [Glycerol, glycerol, reference compound], the “Mean DHCMi corr. active agent” value under setting [1] is listed as 13.8 and the “Mean DHCMi corr. active agent” value under setting [2] was 11.
As for `CC(O)C(=O)[O-].C[N+](C)(CCO)CCO` [Compound 13], the “Dielectric capacitance of the stratum corneum / moisturizing effect in comparison with glycerol at the same concentration” value is listed as “better”. Moreover, the “Mean DHCMi corr. active agent” value under setting [2] worked out at 14.

The record behind these values is patent US20180235860A1, “USE OF DIETHANOLAMMONIUM DERIVATIVES AS SKIN MOISTURIZER” (L'OREAL, priority 2015, published 2018).
